Results as given in PubChem BioAssay (NCI).
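Values below derive from 48-hour exposures of cells grown in 96-well plates, with endpoints linearly interpolated between the two concentrations bracketing the appropriate inhibition level. GI50 is the concentration that inhibits growth by half. The concentration for full growth arrest is given as TGI.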

Legend:
Assay in all cases: DTP human tumour cell line panel, 48 h
A549 NSCLC = tested on: A549 NSCLC
CAKI-1 renal = tested on: CAKI-1 renal
EKVX NSCLC = tested on: EKVX NSCLC
HCT-116 colon = tested on: HCT-116 colon
KM12 colon = tested on: KM12 colon
MDA-MB-435 = tested on: MDA-MB-435
NCI/ADR-RES ovarian = tested on: NCI/ADR-RES ovarian
OVCAR-4 ovarian = tested on: OVCAR-4 ovarian
SR leukemia = tested on: SR leukemia
U251 CNS = tested on: U251 CNS

Row | Structure (SMILES) | GI50 (A549 NSCLC) [µM] | TGI (A549 NSCLC) [µM] | GI50 (CAKI-1 renal) [nM] | TGI (CAKI-1 renal) [µM] | GI50 (EKVX NSCLC) [nM] | TGI (EKVX NSCLC) [µM] | GI50 (HCT-116 colon) [nM] | TGI (HCT-116 colon) [µM] | GI50 (KM12 colon) [nM] | TGI (KM12 colon) [µM] | GI50 (MDA-MB-435) [µM] | TGI (MDA-MB-435) [µM] | GI50 (NCI/ADR-RES ovarian) [µM] | TGI (NCI/ADR-RES ovarian) [µM] | GI50 (OVCAR-4 ovarian) [nM] | TGI (OVCAR-4 ovarian) [µM] | GI50 (SR leukemia) [nM] | TGI (SR leukemia) [µM] | GI50 (U251 CNS) [µM] | TGI (U251 CNS) [µM]
1 | Cc1ccc(S(=O)(=O)N2CCc3ccc(O)c4c3C2Cc2ccc3c(c2-4)OCO3)cc1 (stereo not given) | 0.808 | 12.4 | 737 | 22.6 | 4340 | > 100 | 451 | 10.6 | 456 | 3.66 | 0.216 | 0.539 | 0.348 | 2.08 | 934 | 33.3 | 352 | 5.98 | 0.464 | 5.92
2 | COc1cc2c(cc1C)NC(=O)/C2=C\c1c[nH]c2ccccc12 | 28.4 | > 100 | 10600 | 32.3 | 10900 | 29.7 | 21100 | 90.1 | 417 | 21.1 | 14.3 | 43.8 | 13 | 47.6 | 12300 | 40.5 | 8910 | 42.6 | 13.6 | 37.9
3 | COCCn1cc(-c2csc(-c3c[nH]c4ccc(Br)cc34)n2)c2cccnc21 | 6.89 | > 100 | 5210 | > 100 | 2050 | > 100 | 3840 | > 100 | 2740 | > 100 | 4.12 | > 100 | 2.86 | > 100 | 2740 | > 100 | 3250 | > 100 | 6.18 | 73.2
4 | Cc1ccc(S(=O)(=O)Nc2ccc(-c3cc(-c4cccc(F)c4)c(C#N)c(N)n3)cc2)cc1 | 3.11 | 15.7 | 1600 | 3.16 | 2170 | 6.32 | 1690 | 3.23 | 3100 | 10.2 | 2.02 | 4.46 | 2.92 | 10.8 | 1770 | 3.67 | 2700 | 10.5 | 2.75 | 9.62
5 | C#Cc1cccc(NC(=O)c2ccc(NC(=O)CCl)cc2)c1 | > 82.5 | > 82.5 | > 82500 | > 82.5 | > 82500 | > 82.5 | 11900 | 36.3 | 47000 | > 82.5 | 43.8 | > 82.5 | 19.6 | 67.1 | 16700 | 72 | 7170 | 26.6 | 14.9 | 34.8
6 | COCc1c(-c2ccc(NC(=O)Nc3cc(C(F)(F)F)ccc3F)c(F)c2)c2c(N)ncnn2c1CN1CCOCC1 | 2.53 | > 10 | 1900 | > 10 | 1710 | 7.62 | 1700 | > 10 | 41 | 5.43 | 1.93 | > 10 | 3.12 | > 10 | 1970 | > 10 | 398 | 3.9 | 2.56 | > 10
7 | O=C(O)CCC(C(=O)O)N1C(=O)C2C3CCC(C3)C2C1=O (stereo not given) | – | > 100 | – | > 100 | – | > 100 | – | > 100 | – | > 100 | – | > 100 | – | > 100 | – | > 100 | – | > 100 | – | > 100
